Consider one compound from patent US6916832B2, “Chromeno[4,3,2-de]isoquinolines as potent dopamine receptor ligands” (University of North Carolina at Chapel Hill, priority 1999, dated 2005).

The target in data set [1] is T1, rat striatal D1 receptors (Rattus norvegicus, UniProt P18901).
T1 construct: Frozen rat striata was homogenized by seven manual strokes; from tissue; host or cells: rat striatum
Put plainly: Radioreceptor binding, rat striatal D1 receptors labeled with [3H]SCH23390. The protocol:
FIG. 1 is a graphic representation of the affinity of dinoxyline (circles), dinapsoline (diamonds) and (+)-SCH23390 (solid circles) for striatal D1 receptors. Rat striatal D1 receptors were labeled with [^3H]SCH23390 (1), and unlabeled dinoxyline, dinapsoline, or (+)-SCH23390 was added to determine the specific binding of each compound to the D1 receptor.
(§1) Frozen rat striata was homogenized by seven manual strokes in a Wheaton Teflon-glass homogenizer in 8 ml ice cold 50 mM HEPES buffer with 4.0 mM MgCl2, (pH 7.4). The tissue was centrifuged at 27,000×g for 10 min, the supernatant was discarded, and the pellet was homogenized (5 strokes) and resuspended in ice cold buffer and centrifuged again. The final pellet was suspended at a concentration of approximately 2.0 mg wet weight/ml. The amount of tissue added to each assay tube was 1.0 mg, in a final assay volume of 1.0 ml. D1 receptors were labeled with [^3H] SCH23390 (0.30 nM). D2 receptors were labeled with [^3H] spiperone (0.07 nM); unlabeled ketanserin (50 nM) was added to mask binding to 5HT2 sites. Total binding was defined as radioligand bound in the absence of any competing drug. Nonspecific binding was estimated by adding unlabeled SCH23390 (1 μM) or unlabeled chlorpromazine ([…]) for D1 and D2 receptor binding assays, respectively. Triplicate determinations were made for each drug concentration in each assay. Assay tubes were incubated at 37° C. for 15 minutes. Binding was terminated by filtering with ice cold buffer on a Skatron 12 well cell harvester (Skatron, Inc., Sterling, Va.) using glass fiber filter mats (Skatron no. 7034). Filters were allowed to dry and 2.0 ml of Optiphase HI-SAF II scintillation fluid was added. After shaking for 30 minutes, radioactivity was determined on a LKB Wallac 1219 RackBeta liquid scintillation counter (Wallac, Gaithersburg, Md.). Tissue protein levels were estimated using the BCA protein assay reagent.

Data set [2] addresses T2, D1 receptors (Macaca mulatta, UniProt O77680).
T2 construct: expressed in transfected cells; host or cells: C-6 glioma cells (C-6-mD1)
Put plainly: cAMP production in C-6-mD1 cells (cloned expressed primate D1A receptors). The data set is classed as cell-based. The protocol: Radioreceptor and function studies were also conducted for cloned human or monkey receptors transfected into one of several cell lines [e.g., C-6 glioma or Chinese hamster ovary (CHO) cells]. Cells were grown in appropriate medium, and at confluency, harvested for membrane preparation. Flasks of cells in the same passage were scraped using a rubber policeman and collected in 50 ml centrifuge tubes. These were spun for 10 min at 1200×g, to pellet whole cells. The supernatant was discarded and then five ml of PBS (phosphate buffered saline)/flask was added to the centrifuge tubes to resuspend the cells. The tubes were then centrifuged again for […] at 28,500×g. The PBS was removed and the pellet suspended in a solution of 10% DMSO in PBS. Cells were homogenized with a polytron for 10 seconds on setting 5. One ml aliquots were stored at −80° C. until use in receptor binding studies. Aliquots contained approximately 1 mg/ml of protein, as measured using the BCA protein assay reagent (Pierce, Rockford, Ill.). Agonist intrinsic activity was assessed by the ability of selected compounds to stimulate adenylate cyclase, as measured by cAMP formation in whole cells. In C-6 cells, for example, the dose response curve for each drug was fit using a sigmoid function to determine maximal effective concentration (top plateau of curve) as well as EC50s. All drugs were run in the same assay in order to decrease variability across cell passages. Confluent plates of cells were incubated with drugs dissolved in DMEM-H plain media supplemented with 20 mM Hepes, 0.01% ascorbic acid and 500 μM iso-butyl-methyl xanthine (IBMX; pH 7.2; media A). The final volume for each well was 500 μl. In addition to the dose response curves run for each drug, basal levels of cAMP and isoproterenol-stimulated (through endogenous β2 receptors, positive control) cAMP levels were evaluated for each plate. Each condition was run in duplicate wells. Following a 10 min incubation at 37° C., cells were rinsed briefly with media, and the reaction stopped with the addition of 500 μl 0.1 N HCl. Cells were then allowed to chill for 5-10 min at 4° C., the wells were scraped and the volume placed into 1.7 ml centrifuge tubes. An additional 1 ml of 0.1 N HCl was added to each tube, for a final volume of 1.5 ml/tube. Tubes were vortexed briefly, and then spun in a BHG Hermle Z 230 M microcentrifuge for five min at 15,000×g to eliminate large cellular particles. Cyclic AMP levels for each sample were determined as described above. Data were calculated for each sample, and expressed initially as pmol/mg/min cAMP. […] Normalized dose-response curves were analyzed by nonlinear regression using an algorithm for sigmoid curves in the curvefitting program InPlot (Graphpad, Inc.; San Francisco, Calif.). […]
Background: Changes in cAMP serve as a functional read-out for many G protein-coupled receptors.

Data set [3] concerns the target T3, cloned human D4 receptor (Homo sapiens, UniProt P21917).
T3 construct: expressed in transfected cells; host or cells: not specified (e.g. C-6 glioma or CHO cells)
T3 sequence (P21917 1-419): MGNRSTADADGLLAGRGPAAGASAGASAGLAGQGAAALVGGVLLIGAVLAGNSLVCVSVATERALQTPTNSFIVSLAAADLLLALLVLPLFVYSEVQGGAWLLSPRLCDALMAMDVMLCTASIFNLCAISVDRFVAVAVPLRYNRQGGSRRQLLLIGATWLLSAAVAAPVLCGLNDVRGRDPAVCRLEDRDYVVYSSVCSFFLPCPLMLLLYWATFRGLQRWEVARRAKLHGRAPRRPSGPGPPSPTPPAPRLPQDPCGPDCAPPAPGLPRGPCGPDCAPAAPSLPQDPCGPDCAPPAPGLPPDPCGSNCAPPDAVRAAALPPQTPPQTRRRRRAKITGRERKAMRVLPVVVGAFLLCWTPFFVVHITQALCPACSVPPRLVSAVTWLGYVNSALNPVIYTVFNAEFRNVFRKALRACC
Put plainly: Radioreceptor binding, cloned human D4 receptor. The note with it: read-out: K0.5 at the cloned human D4 receptor.
Protocol: Cells were grown in appropriate medium, and at confluency, harvested for membrane preparation. Flasks of cells in the same passage were scraped using a rubber policeman and collected in 50 ml centrifuge tubes. These were spun for 10 min at 1200×g, to pellet whole cells. The supernatant was discarded and then five ml of PBS (phosphate buffered saline)/flask was added to the centrifuge tubes to resuspend the cells. The tubes were then centrifuged again for min at 28,500×g. The PBS was removed and the pellet suspended in a solution of 10% DMSO in PBS. Cells were homogenized with a polytron for 10 seconds on setting 5. One ml aliquots were stored at −80° C. until use in receptor binding studies. Aliquots contained approximately 1 mg/ml of protein, as measured using the BCA protein assay reagent (Pierce, Rockford, Ill.). […]

The test system of data set [4] is D1 and D2 receptors. As to the kind of experiment: D1:D2 selectivity from receptor binding. The protocol:
as §1, with “Filters were allowed to dry and 2.0 ml of Optiphase HI-SAF II scintillation fluid was added.” left out, “Tissue protein levels were estimated using the BCA protein assay reagent.” left out

The EC50 is the midpoint of the concentration-response curve. The term melting point denotes the temperature, or range, at which the solid turns liquid.

T2 sequence (O77680 whole entry): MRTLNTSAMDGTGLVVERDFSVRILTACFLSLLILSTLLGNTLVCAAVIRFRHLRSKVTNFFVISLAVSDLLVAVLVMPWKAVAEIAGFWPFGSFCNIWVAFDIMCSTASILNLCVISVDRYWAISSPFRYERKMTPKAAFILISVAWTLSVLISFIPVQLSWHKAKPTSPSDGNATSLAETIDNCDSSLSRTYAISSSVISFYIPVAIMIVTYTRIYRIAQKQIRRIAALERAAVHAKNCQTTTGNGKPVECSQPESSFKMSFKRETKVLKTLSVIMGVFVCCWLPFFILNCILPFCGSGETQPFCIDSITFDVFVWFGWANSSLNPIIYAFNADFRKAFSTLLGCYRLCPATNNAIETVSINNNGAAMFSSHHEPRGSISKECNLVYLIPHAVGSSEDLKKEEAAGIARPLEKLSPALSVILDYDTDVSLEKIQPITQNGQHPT
T1 sequence (P18901 whole entry): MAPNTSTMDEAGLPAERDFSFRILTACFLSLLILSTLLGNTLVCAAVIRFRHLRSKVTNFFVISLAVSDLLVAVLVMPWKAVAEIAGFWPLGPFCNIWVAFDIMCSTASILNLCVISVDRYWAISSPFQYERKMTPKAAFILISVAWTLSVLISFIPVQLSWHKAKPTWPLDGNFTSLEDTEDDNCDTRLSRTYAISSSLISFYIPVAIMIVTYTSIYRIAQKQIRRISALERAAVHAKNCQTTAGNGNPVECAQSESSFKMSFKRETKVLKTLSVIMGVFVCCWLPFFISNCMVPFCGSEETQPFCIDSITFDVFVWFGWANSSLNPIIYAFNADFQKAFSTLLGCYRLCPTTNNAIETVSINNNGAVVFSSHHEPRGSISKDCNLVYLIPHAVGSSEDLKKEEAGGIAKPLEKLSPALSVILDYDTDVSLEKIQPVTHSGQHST

With `Br.Oc1ccc2c(c1O)Oc1cccc3c1C2CNC3` (racemic) [dinoxyline, (±)-8,9-dihydroxy-1,2,3,11b-tetrahydrochromeno[4,3,2-de]isoquinoline hydrobromide], the melting point is 298 to 302 °C (dec.). Further, in data set [1] ([3H]SCH23390 label, rat striatum, read-out: K0.5 for rat striatal D1 receptors), the Ki is below 5 nM. For the same compound, the “affinity for dopamine D1 receptors labeled with [3H]SCH23390 (in words)” value in data set [1] (compared with dihydrexidine) is given as “high affinity”. The “nH of competition curve” value in data set [1] (competition at D1 receptors labeled with [3H]SCH23390, shallow curve consistent with agonist properties) is recorded as “ca. 0.7”. Besides, the “agonist intrinsic activity at D1 receptors” value in data set [2] (C-6-mD1 cells / cloned expressed primate D1A receptors, relative to dopamine, hydrobromide) is “full agonist activity”. Also, in data set [2] (C-6-mD1 cells, read-out: EC50 in stimulating synthesis of cAMP via D1 receptors), the concentration for a half-maximal effect (EC50) is below 30 nM. Further, the Ki in data set [3] is below 45 nM. Moreover, the “D1:D2 selectivity” value in data set [4] is “equally high affinity for both receptors”.
